Source: patent USRE31836E, “Pharmaceutical and dietary composition” (priority 1984, dated 1985)
“Also recorded” adds a separate entry of the source. Where two headings read alike, the source gives them in different places.

Tests used:
PG formation = conditions: cited from earlier work
[1] = cited from earlier work
NZB/W mouse = assay: NZB/W mouse, animal model for Sjogren's syndrome; format: in vivo
Sjogren's syndrome = conditions: vitamin C 7.5 g/day for a year; person
Procedure: Associated with these disorders were brittle, frequently cracking nails and hypersensitivity of the hands to soaps and detergents. […] 50 mg/day pyridoxine (desirable for normal EFA metabolism) and 6×0.6 ml Evening Primrose oil capsules per day were added to the regime.

[2] = tested on: conversion of DGLA to 1 series PGs (human platelets); assay: tissue or blood; format: cell-based; conditions: for effect on formation of 1 series PGs from DGLA: human platelets; for activity at 0.018 µg/mL / activity at 18 µg/mL: Homo sapiens, Platelet; for behaviour of treated normal platelets (PGE1 from DGLA): normal platelets compared with schizophrenic platelets
Procedure: (§1) The method is given in detail later herein but briefly human platelets are incubated with radioactive DGLA or arachidonic acid. The PGs produced during incubation are extracted by conventional means and separated by thin layer chromatography, and the amount of radioactivity appearing in each PG or related substance is counted. PGE 1, PGF 1α and thromboxane B1 from DGLA, and PGE 2, PGF 2α and thromboxane B2 from AA are estimated.
(§2) One day expired (2 days old) human platelets were obtained and used within 48 hours of expiration. One unit was centrifuged at 1000 g for 15 minutes and the supernatent drawn off. The platelet pellet was resuspended in Tris-NaCl-EDTA buffer, made up of 0.15 M NaCl, 0.15 M Tris HCl at pH 7.4 and 0.077 M NaEDTA (90:8:2 v/v/v). The platelets were recentrifuged, the supernatant removed and the pellet resuspended in Krebs-Henseleit buffer (without calcium) at pH 7.4. The washed platelets suspension contained about 1-2% red blood cells. All glassware used in the preparation of the platelets was siliconized.
Four equal sized 1 ml aliquots of the platelet suspension, containing 10^9 platelets/ml were incubated with e.g. 0.5 μCi ^14 C-DGLA for five minutes. At the beginning of the incubation the material under test was added to the suspensions. The reaction was stopped after five minutes by addition of 1/10 volume of 10% formic acid. The suspension was then extracted three times with ethyl acetate and the fractions pooled and dried under vacuum. The extract was then taken up with 5 ml chloroform/methanol (2/1, v/v). Recovery of radioactive material in the extract was checked by taking 50 μl of the chloroform/methanol and counting by liquid scintillation.
The chloroform/methanol extract was then reduced in volume to 1 ml under dry prepurified nitrogen. Thin layer chromatography was carried out on 500 μg precoated, prescored silica gel G Uniplates (Analtech). Plates were activated by heating to 100° C. for 1 hour immediately prior to use. The solvent system was chloroform:methanol:acetic acid:water (90:8:1:0:8). Reference compounds (PGsE1 and F1α and thromboxane B1) were run at the same time and visualized by phosphomolybdic acid spray followed by brief heating. The bands on the plates corresponding to the reference PGE1, PFG1α and TXB1 were scraped off and eluted with 20 ml acetone. Each elution was then evaporated to dryness and counted by liquid scintillation (Beckman 100 LS counter).
Three experiments were performed with DGLA and three with AA.

opiate receptor = conditions: cited from earlier work
[3] = tested on: conversion of AA to 2 series PGs (human platelets); format: cell-based
Procedure: as §1, §2
Four equal sized 1 ml aliquots of the platelet suspension, containing 10^9 platelets/ml were incubated with e.g. 0.5 μCi ^14 C-DGLA for five minutes. […]
The chloroform/methanol extract was then reduced in volume to 1 ml under dry prepurified nitrogen. […] Each elution was then evaporated to dryness and counted by liquid scintillation (Beckman 100 LS counter). […]

[4] = read-out: PGE1 formation (precursor DGLA), percentage of control counts
[5] = read-out: TXB1 formation (precursor DGLA), percentage of control counts

CCO [Ethyl alcohol, ethyl alcohol]
effect on formation of thromboxane B2 (PG formation; extremely high levels of ethanol, conversion of AA): can block the formation of thromboxane B2
concentration of alcohol in human plasma at which signs of mild intoxication first appear ([1]; human plasma): 20-30 mg %
concentration which produces "blind drunkenness" ([1]; in vivo): 300 mg %

CCCCC[C@H](O)/C=C/[C@H]1[C@H](O)CC(=O)[C@@H]1CCCCCCC(=O)O [PGE1]
effect on immunological abnormalities of the strain (NZB/W mouse): can correct many of the immunological abnormalities of the strain

O=C1O[C@H]([C@@H](O)CO)C(O)=C1O [Vitamin C, ascorbic acid]
effect on well-being, dry eyes and mouth (Sjogren's syndrome): subjective sense of well-being and some slight improvement in the dry eyes and mouth
effect on PG formation (PG formation; high concentrations of vitamin C, reports in the literature): both enhancing and reducing PG formation

CN1CC[C@@]23CCCC[C@@H]2[C@@H]1Cc1ccc(O)cc13 [d-levorphanol]
effect on conversion of DGLA to PGE1 ([2]; d-isomer of levorphanol): no such effect
effect on formation of 1 series PGs from DGLA [2]: not shown by d-levorphanol
binding to and activation of the opiate receptor (opiate receptor): does not
binding to and activation of the opiate receptor (opiate receptor; listed as d-isomer of levorphanol): devoid of opiate activity

CN1CC[C@]23CCCC[C@H]2[C@H]1Cc1ccc(O)cc13 [l-levorphanol]
activity at 0.018 µg/mL [2, 4]: 23%
activity at 18 µg/mL [2, 4]: 72%
activity at 0.018 µg/mL [2, 5]: 20%
activity at 18 µg/mL [2, 5]: 76%
effect on formation of 1 series PGs from DGLA [2]: reduced formation of 1-series PGs; also recorded: able to block the formation of 1 series PGs from DGLA
effect on conversion of DGLA to PGE1 ([2]; l-levorphanol 100 μg/ml): inhibiting conversion of DGLA to PGE1
behaviour of treated normal platelets (PGE1 from DGLA) [2]: behave like schizophrenic platelets
imitation of schizophrenic defect of conversion of DGLA to PGE1 in normal platelets ([2]; normal platelets incubated with l-levorphanol): can be limited in normal platelets by incubation with l-levorphanol
effect on formation of 2 series PGs from AA [3]: no effect on production of 2-series PGs from AA; also recorded: without blocking the formation of 2 series PGs from AA
binding to and activation of the opiate receptor (opiate receptor): binds to and activates the opiate receptor

CCCCC/C=C\C/C=C\C/C=C\CCCCC(=O)O [γ-linolenic acid]
effect on immunological abnormalities of the strain (NZB/W mouse): can correct many of the immunological abnormalities of the strain

β-endorphin: natural opioid (YGGFMTSEKSQTPLVTLFKNAIIKNAYKKGE; Beta-endorphin; UniProt P01189 237-267, looked up)
effect on formation of 1 series PGs from DGLA [2]: effect similar to levorphanol
behaviour of treated normal platelets (PGE1 from DGLA) [2]: behave like schizophrenic platelets
